Source: US20070259952A1 (H. LUNDBECK A/S, priority 2006, published 2007)
Like-named read-outs stand apart in the source and are kept apart here.

What was measured:
[1] = system: dopamine cells in the VTA; experiment: In vivo assessment of dopamine neuron firing in rat ventral tegmental area
Experimental: In vivo assessment of dopamine neuron firing in rat ventral tegmental area was conducted as described by Schilstrom et al. (Neuroscience 125:957-64, 2004). Briefly, male Sprague Dawley rats (250-300 g) were anesthetized with chloral hydrate (400 mg/kg i.p.) and mounted in a stereotactic frame. Anesthesia was maintained throughout the experiment with periodical injections of chloral hydrate and body temperature was kept at 37° C. with a rectal thermometer connected to an electrical heating pad. Recording electrodes were pulled in a Narishige vertical puller from borosilicate glass capillaries with outer and inner diameters of 1.50 and 1.17 mm, respectively, and filled with 2% Pontamine Sky Blue in 2 M NaCl. […] The rat was killed with an overdose of anesthetic, and the brain was removed and placed in 25% sucrose 10% paraformaldehyde solution. Sections of the VTA were cut ([…]) and stained with Neutral Red and the recording sites were verified by light microscopy.

[2] = system: NMDA-induced currents in pyramidal cells of the medial prefrontal cortex; experiment: Facilitation of NMDA-induced currents in pyramidal cells of the medial prefrontal cortex in vitro (brain slices, voltage-clamp); format: cell-based, rat
[3] = system: mesocorticolimbic dopaminergic neurons in the VTA; conditions: cited from earlier work; for firing rate of mesocorticolimbic dopaminergic neurons in the VTA: Prisco and Eposito 1995, Di Masico et al 1998

CN(C)CCCC1(c2ccc(F)cc2)OCc2cc(C#N)ccc21 (racemic) [citalopram]
Emax ([1]; Rattus norvegicus, Neuron, FIG. 2, read-out: maximal response, burst difference): ~10%

Cc1nc2n(c(=O)c1CCN1CCC(c3noc4cc(F)ccc34)CC1)CCCC2 [risperidone]
effect on NMDA-induced currents in pyramidal cells of the prefrontal cortex ([2]; bath application, holding potential −60 mV, FIG. 3): increase NMDA-induced currents

Fc1ccc([C@@H]2CCNC[C@H]2COc2ccc3c(c2)OCO3)cc1 [paroxetine]
firing rate of mesocorticolimbic dopaminergic neurons in the VTA [3]: slight inhibition

CNCCC(Oc1ccc(C(F)(F)F)cc1)c1ccccc1 (stereo not shown) [fluoxetine]
firing rate of mesocorticolimbic dopaminergic neurons in the VTA [3]: slight inhibition

CN[C@H]1CC[C@@H](c2ccc(Cl)c(Cl)c2)c2ccccc21 [sertraline]
firing rate of mesocorticolimbic dopaminergic neurons in the VTA [3]: slight inhibition

CN(C)CCC[C@]1(c2ccc(F)cc2)OCc2cc(C#N)ccc21 [R-citalopram]
effect on the escitalopram-induced increase of burst firing ([1]; 320 μg/kg with escitalopram 320 μg/kg, FIG. 2): significantly inhibits the effect of escitalopram | effect on firing rate of dopamine cells in the VTA ([1]; given alone, dose not stated, FIG. 1): unaffected | effect on burst firing of dopaminergic cells in the VTA ([1]; given alone, FIG. 2): no effect on burst firing | effect on the escitalopram-induced increase of firing rate ([1]; pre-treatment with 320 μg/kg before escitalopram 320 μg/kg, FIG. 1): blocked

COCCCC/C(=N\OCCN)c1ccc(C(F)(F)F)cc1 [fluvoxamine]
firing rate of mesocorticolimbic dopaminergic neurons in the VTA [3]: slight inhibition

CN(C)CCC[C@@]1(c2ccc(F)cc2)OCc2cc(C#N)ccc21 [escitalopram, (S)-1-[3-(dimethylamino)propyl]-1-(4-fluorophenyl)-1,3-dihydro-5-isobenzofurancarbonitrile]
effect on firing rate of dopamine cells in the VTA ([1]; 320 μg/kg, FIG. 1): elevates firing rate statistically significant | effect on burst firing of dopaminergic cells in the VTA ([1]; doses equal to and above 160 μg/kg, FIG. 2): increases burst firing statistically significant dose-dependently | effect on firing rate of dopamine cells in the VTA ([1]; higher dose 640 μg/kg, FIG. 1): appears to be maintained | burst difference ([1]; highest dose tested 640 μg/kg, FIG. 2): about 20%

CCOc1ccccc1OC(c1ccccc1)C1CNCCO1 (stereo not shown) [reboxetine]
excitability and burst firing of dopaminergic neurons in the VTA ([3]; Linner et al, 2001): enhances the excitability of dopaminergic neurons in the VTA with a preferential activation of their burst firing mode | effect on NMDA-induced currents in pyramidal cells of the prefrontal cortex [2]: increases NMDA-induced currents
